Measured values as given in ChEMBL document CHEMBL4371089, “Novel, potent, selective, and brain penetrant phosphodiesterase 10A inhibitors” (Bioorg Med Chem Lett, 2019).

What was measured:
[1] = in vivo; settings: rat, iv, 2 mg/kg
[2] = rat, in vivo, ip, 2 mg/kg, 1 h
[3] = in vivo; settings: rat, po, 2 mg/kg
[4] = in vivo; settings: rat, brain, ip, 2 mg/kg
[5] = in vivo; settings: rat, plasma, ip, 2 mg/kg
[6] = in vivo; settings: rat, brain/plasma, ip, 2 mg/kg
[7] = rat, in vivo, ip, 2 mg/kg, 1 h; remark: listed apart in the source
[8] = tested on: P-gp; experiment: in vitro; settings: dog, MDCK-MDR1
[9] = in vivo; settings: rat, brain/plasma, ip, 2 mg/kg; remark: listed apart in the source

CCCc1nc(C)c2c(C)nc3ccc(OC)nc3n12
Vd [1]: 2.4 L/kg | Druguptake(free)/dose [2]: 0.4 ng/mL | bioavailability [3]: 19% | concentration at 1 h [4]: 118 ng/mL | concentration at 1 h [5]: 72 ng/mL | Kp uu at 1 h [6]: 3.81 | Cp(f)/dose [7]: 0.1 ng/mL | Papp [8]: 33 ×10⁻⁶ cm/s | Kp at 1 h [9]: 1.67

Cn1nc(-c2ccccc2Cl)c2c3cc(F)cc(F)c3nnc21
Papp [8]: 36 ×10⁻⁶ cm/s

CCCc1nc(C)c2c(C)nc3scnc3n12
Papp [8]: 68 ×10⁻⁶ cm/s

COc1cc(OC)c2nnc3c(c(C4CC4)nn3C)c2c1
Papp [8]: 62 ×10⁻⁶ cm/s
